Measured values as given in PubChem BioAssay (NCI).
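1) Cells in 96-well plates. 2) Compound, 48 h, 5 concentrations. 3) Linear interpolation between surrounding doses. 4) Unreached endpoint = highest concentration. TGI is the concentration that stops growth completely.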

Columns and labels:
Experiment in all cases: NCI tumour cell line growth inhibition, 48 h
XF 498 CNS = test system: XF 498 CNS
M19-MEL melanoma = test system: M19-MEL melanoma
P388/ADR leukemia = test system: P388/ADR leukemia
MCF7 breast = test system: MCF7 breast
SN12K1 renal = test system: SN12K1 renal
MDA-N = test system: MDA-N
MDA-MB-435 = test system: MDA-MB-435
P388 leukemia = test system: P388 leukemia
NCI/ADR-RES ovarian = test system: NCI/ADR-RES ovarian
RXF-631 renal = test system: RXF-631 renal
T-47D breast = test system: T-47D breast
HS 578T breast = test system: HS 578T breast

Compound	TGI (XF 498 CNS) [µM]	TGI (M19-MEL melanoma) [µM]	TGI (RXF-631 renal) [µM]	further results
O=S(=O)(N/N=C/c1cccc(Cl)c1Cl)c1ccccc1	> 100	> 100		
CC1=C(C(=O)NCc2ccccc2)C(c2ccc([N+](=O)[O-])cc2)C(C(=O)NCc2ccccc2)=C(C)N1	> 100	52.7		
COc1cc2c(cc1OC)C(OC)N(C)c1c-2ccc2cc3c(cc12)OCO3 (stereo not given)	2.95	4.08		TGI (P388/ADR leukemia): 13 µM; TGI (MCF7 breast): 12.6 µM; TGI (SN12K1 renal): 2.05 µM; TGI (MDA-N): > 75 µM; TGI (MDA-MB-435): > 75 µM; TGI (P388 leukemia): 4.98 µM; TGI (NCI/ADR-RES ovarian): > 55.3 µM
COc1ccc(C(=O)C(c2ccc(OC)cc2)C2OC(=O)C(Cl)=C2Cl)cc1 (stereo not given)	> 100	> 100		
CC(C)C1CC2C(=O)N(c3ccccc3)C(=O)C2c2[nH]c3ccccc3c21 (stereo not given)	54.9	> 100		
Cc1nc(-c2ccccc2)cc2c1c(=O)oc1ccccc12			> 100	
CC(=O)C1C(=O)NC(=O)C1=O (stereo not given)	> 100	> 100		
O=C1c2ccccc2NC1(c1ccccc1)c1c(-c2ccccc2)[nH]c2ccccc12 (stereo not given)	99	> 100	> 100	
O=C(O)/C(Cl)=C(\Cl)C(=O)NC1C2CC3CC(C2)CC1C3 (stereo not given)	> 100	> 100	> 100	
COc1ccc(Cc2cc3c(cc2OCC(=O)O)OCO3)cc1		> 100	> 100	
C[C@@H](CN1CC(=O)NC(=O)C1)N1CC(=O)NC(=O)C1	201	998		TGI (P388/ADR leukemia): 2180 µM; TGI (MCF7 breast): 498 µM; TGI (T-47D breast): 1020 µM; TGI (SN12K1 renal): 541 µM; TGI (MDA-N): 680 µM; TGI (MDA-MB-435): 1470 µM; TGI (HS 578T breast): 1810 µM; TGI (P388 leukemia): 2500 µM; TGI (NCI/ADR-RES ovarian): 987 µM
O=C(c1ccccc1)c1oc2ccc(Br)cc2c1-c1cnn(-c2ccccc2)c1	> 100	> 100		
CN(CCc1ccccn1)c1nc(=[N+](C)C)ss1	> 100	> 100	> 100	
CN(/N=C/c1cccc2cccnc12)c1ccc([N+](=O)[O-])cc1	> 100	> 100		
Cc1ccc(NC(=O)C(=O)CC(=O)C2CCOC2=O)c(C)c1 (stereo not given)	> 100		> 100	
CN1C(c2ccccc2)CS(=O)(=O)CS1(=O)=O (stereo not given)	> 100	> 100	> 100	

Compound	TGI (XF 498 CNS) [µM]	TGI (M19-MEL melanoma) [µM]	TGI (RXF-631 renal) [µM]	further results
O/N=C1/C(=C/c2ccc(Oc3ccccc3)cc2)CCCC1C(NO)c1ccc(Oc2ccccc2)cc1 (stereo not given)	> 100	> 100	> 100	
COC(=O)CCC(=O)Nc1cc(Cl)ccc1Cl	> 100	> 100		
O=S(=O)(SCc1ccccc1)C(c1ccccc1)c1ccccc1	> 100	> 100		
CC1=C(C(=O)Nc2cc(=O)n(C)c(=O)n2C)C(c2ccc([N+](=O)[O-])cc2)C(C(=O)Nc2cc(=O)n(C)c(=O)n2C)=C(C)N1	> 100	> 100	> 100	
Cc1ccccc1C(=O)Oc1ccc(O)cc1		> 100	> 100	
CN(C)CCNC(=O)c1cccc2c(Nc3ccc(S(N)(=O)=O)cc3)c3ccccc3nc12	1.81			
CC(=O)O[C@H]1CCC2[C@@H]3CCC4=C(O)C(=O)C(C#N)C[C@]4(C)C3CC[C@@]21C (stereo not given in full)	> 100	> 100		
COc1cc(O)c2c(c1)C(=O)C=C(Cl)C2=O	> 100	> 100	> 100	
O=C(Cc1nc2ccccc2s1)C(=O)Nc1cccc(Cl)c1	> 100	> 100	> 100	
CC(=O)OC1CC2Oc3ccc(C)cc3C(C)(O2)C1=O (stereo not given)	> 100	> 100		
C#CCN(N=O)C(=O)NC(CCCNC(=O)OCc1ccccc1)C(=O)OCc1ccccc1 (stereo not given)	60.1	> 100		
COc1ccc(C[C@@H]2NC[C@@H](O)[C@@H]2OC(C)=O)cc1		> 100		TGI (T-47D breast): 0.193 µM; TGI (MDA-MB-435): 0.0883 µM; TGI (HS 578T breast): 0.169 µM
CCOC(=O)C(=O)Nc1ccc(Cl)cc1C	> 100	> 100		
COc1ccc(NC(=O)CC/C(CC(=O)C(C)(C)C)=N\NC(=O)C(N)=O)cc1		> 100		
O=c1cc(-c2ccccc2)oc2cc(O)cc(O)c12	44.1	73.5		
